# Experimental data from US20050075398A1, “Neuroprotectin D1 protects against cellular apoptosis, stroke damage, alzheimer's disease and retinal diseases” (priority 2003, published 2005).
# Legend:
# B94 gene expression = test: HGU133 GeneChip DNA array in HN cells: B94; type: cell-based, human; conditions: Aβ42 25 μM, DHA 50 nM or NPD1 50 nM, 18 h, nsc = no significant change
# Source text: RNA Isolation and Spectral Quality. Brain tissues were rapidly processed, and total RNA was extracted using Trizol reagent (Invitrogen, Carlsbad, Calif.). Total RNA quality and abundance were profiled using RNA Nano LabChips (Caliper Technologies, Mountainview, Calif.; Agilent Technologies, Palo Alto, Calif.).
# Probe Synthesis and GeneChip Hybridization. Biotinylated antisense cRNAs were synthesized from cDNA using the Superscript Choice System (Invitrogen) and Enzo Biorray High Yield RNA Transcript Labeling kits according to the manufacturer's protocols (Affymetrix) and as described in Colangelo, V., Schurr, J., Ball, M. J., Pelaez, R. P., Bazan, N. G., Lukiw, W. J. (2002) J. Neurosci. Res., 70: 462-473; and Lukiw, W. J. (2004) Neurochem. Research, 29: 1287-1297. Probes were hybridized against HU133Av2 GeneChip DNA arrays that interrogate approximately 33,000 full-length […] genes and expressed sequence tag (EST) clusters. […]
# GeneChip Data and Statistical Analysis. […] Volcano plots were plotted representing total gene expression patterns as a function of fold-change as compared to expression patterns of age-matched controls as plotted against p, as calculated by an analysis of variance (ANOVA). […] Statistical significance was analyzed using a two-way factorial analysis of variance (p, ANOVA; Statistical Analysis System; SAS Institute, Cary, N.C. ).
# CEX-1 gene expression = test: HGU133 GeneChip DNA array in HN cells: CEX-1; type: cell-based, human; conditions: Aβ42 25 μM, DHA 50 nM or NPD1 50 nM, 18 h, nsc = no significant change
# human COX-2 promoter = test: IL-1β-induced human COX-2 promoter-luciferase assay in ARPE-19 cells; type: cell-based; conditions: IL-1β 10 ng/ml 8 h, NPD1 0.05 to 100 nM, read-out: IC50, IL-1β induction of the COX-2 promoter
# Experimental: Transfection of ARPE-19 cells with human COX-2 (830 bp): ARPE-19 cells growing in 12-well plates were transfected with 5 μg human COX-2-luciferase construct (830 bp) by FuGENE-6 (obtained from Drs. S. Prescott and D. Dixon, Vanderbilt University, Nashville, Tenn.). Four hours later, the medium containing FuGENE-6 was removed, fresh DMEM-F12 (10% FBS) was added, and the cells further incubated 8 h at 37° C. Transfected cells were serum-starved for 4 h and challenged with IL-1β (10 ng/ml) for 8 h with or without NPD1. NPD1 was added at concentrations from 0.05 to 100 nm. Eight hours later, cell homogenates were made, protein concentrations were adjusted, and luciferase assays were performed using 20 μg equivalent protein in Monolight 2010 for 20 seconds with luciferin as substrate, as described below.
# Luciferase assay: The medium containing IL-1β and NPD1 was removed, and the cells were washed with 1 ml cold PBS. The cells were scraped and centrifuged 2500×g for 20 minutes at 4° C. The cell pellet was re-suspended in 500 μl of 2×luciferase assay buffer (ALL, 0.2 mM tricine, 2 mM DTT, 30 mM MgSO4 and 10 mM ATP). […] The relative light units were determined by using an ALL luminometer recording over a 20-second interval, as described in Bazan, N. G., Fletcher, B. S., Herschman, H. R. & Mukherjee, P. K. (1994) Proc. Natl. Acad. Sci. U.S.A. 91:5252-5256. […]
# Bfl-1(A1) protein = test: Western analysis of Bfl-1(A1) in HN cells; type: cell-based, human; conditions: 50 nM, p<0.05
# Experimental: Western Analysis. Total protein was extracted, and 25 μg of protein was analyzed by Western blots using human Bcl-2, Bfl-1 (A1) and actin antibodies. […] Human specific anti-Bfl-1(A1)[Cat. No. sc-8351] was obtained from Santa Cruz Biotechnology (Santa Cruz, Calif.). For Western analysis, signal-intensity data were gathered by phosphorimaging onto molecular imaging screens (FUJIFILM) for 3-36 h using a Typhoon Molecular Imager system (Amersham Biosciences) as described in Bazan and Lukiw, 2002.
# To confirm the above changes in Bcl-2 and Bfl-1(A1), Western analysis was performed using anti-Bcl-2, anti-Bfl-1(A1), and anti-actin primary antibodies (B3170 Sigma Life Science, sc-8351 Santa Cruz, and A2103 Sigma, respectively). The results of the Western analysis confirm up-regulation of Bcl-2 and Bfl-1(A1) anti-apoptotic proteins over actin controls in DHA- and NPD1-treated cells.
smiles,measurement,setting,value
"CC/C=C\C[C@H](O)\C=C/C=C/C=C/[C@H](O)C/C=C\C/C=C\CCC(=O)O [NPD1, 10,17S-docosatriene]","B94 gene expression, fold change over untreated controls",B94 gene expression,nsc
same,"CEX-1 gene expression, fold change over untreated controls",CEX-1 gene expression,nsc
same,IC50,human COX-2 promoter,< 5 nM
same,"Bfl-1(A1) protein increase over controls, normalized with actin",Bfl-1(A1) protein,5.4 fold
